Assay [1] is described as follows: Ability to inhibit LPS-stimulated TNF production in THP-1 cells at 3 uM concentration. The format is functional. The settings on record: Homo sapiens.
Assay [2] deals with Collagenase 3 (Homo sapiens, UniProt P45452). Put plainly: In vitro inhibitory activity against matrix metalloprotease-13.
Assay [3] concerns the target T1, Interstitial collagenase (Homo sapiens, UniProt P03956).
T1 sequence (P03956 whole entry): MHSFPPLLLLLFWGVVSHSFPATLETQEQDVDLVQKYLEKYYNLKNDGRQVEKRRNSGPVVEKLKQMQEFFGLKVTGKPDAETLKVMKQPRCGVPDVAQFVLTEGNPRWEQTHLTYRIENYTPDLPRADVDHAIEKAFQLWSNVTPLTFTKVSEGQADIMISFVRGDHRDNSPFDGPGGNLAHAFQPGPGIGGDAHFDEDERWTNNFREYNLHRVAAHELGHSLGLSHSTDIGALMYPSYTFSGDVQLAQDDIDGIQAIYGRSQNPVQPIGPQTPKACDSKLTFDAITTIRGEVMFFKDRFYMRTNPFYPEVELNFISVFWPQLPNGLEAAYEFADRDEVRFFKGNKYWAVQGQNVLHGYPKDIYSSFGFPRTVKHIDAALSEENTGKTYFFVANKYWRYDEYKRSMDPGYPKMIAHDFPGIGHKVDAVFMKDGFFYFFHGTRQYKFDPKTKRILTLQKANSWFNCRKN
Put plainly: In vitro inhibitory activity against matrix metalloprotease-1.

Assay [4] has as its target Disintegrin and metalloproteinase domain-containing protein 17 (Homo sapiens, UniProt P78536). Put plainly: Inhibitory activity against Tumor necrosis factor alpha converting enzyme.
For assay [5], the target named is T2, Interstitial collagenase (Homo sapiens) (UniProt P03956).
T2 sequence (whole entry): T1 sequence (P03956 whole entry)
Put plainly: In vitro inhibitory activity against matrix metallo proteinase-1 at 1 uM concentration.

These results are taken from ChEMBL document CHEMBL1137145, “Benzodiazepine inhibitors of the MMPs and TACE. Part 2” (Bioorg Med Chem Lett, 2004).

Molecules are shown by their SMILES.

Chain of Disintegrin and metalloproteinase domain-containing protein 17 (P78536 whole entry, the tested form may be a part): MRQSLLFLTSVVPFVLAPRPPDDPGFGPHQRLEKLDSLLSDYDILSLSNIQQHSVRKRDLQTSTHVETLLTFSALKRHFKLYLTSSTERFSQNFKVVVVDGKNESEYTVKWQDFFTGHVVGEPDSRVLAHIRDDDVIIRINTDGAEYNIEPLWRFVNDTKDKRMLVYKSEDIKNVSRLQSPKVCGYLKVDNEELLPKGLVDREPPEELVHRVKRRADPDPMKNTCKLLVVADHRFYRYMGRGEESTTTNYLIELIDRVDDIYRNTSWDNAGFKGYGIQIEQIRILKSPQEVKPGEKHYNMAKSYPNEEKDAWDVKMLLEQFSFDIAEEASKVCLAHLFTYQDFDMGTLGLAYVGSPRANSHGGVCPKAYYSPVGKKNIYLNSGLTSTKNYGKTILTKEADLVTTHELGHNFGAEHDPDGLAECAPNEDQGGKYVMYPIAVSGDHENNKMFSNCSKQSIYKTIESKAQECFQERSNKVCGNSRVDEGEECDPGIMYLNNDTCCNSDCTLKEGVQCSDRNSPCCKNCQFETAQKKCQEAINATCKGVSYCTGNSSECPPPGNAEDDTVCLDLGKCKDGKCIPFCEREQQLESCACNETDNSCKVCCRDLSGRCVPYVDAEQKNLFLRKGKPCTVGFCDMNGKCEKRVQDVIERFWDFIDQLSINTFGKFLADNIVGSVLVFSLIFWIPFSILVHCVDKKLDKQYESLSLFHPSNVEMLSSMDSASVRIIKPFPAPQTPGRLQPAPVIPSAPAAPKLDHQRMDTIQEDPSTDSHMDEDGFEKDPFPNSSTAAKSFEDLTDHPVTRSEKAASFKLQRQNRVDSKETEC

In assay [1], `CC#CCOc1ccc(S(=O)(=O)N2Cc3cc(N4CCN(C)CC4)ccc3N(C(C)=O)CC2C(=O)NO)cc1` (configuration not stated) came in with an inhibition at 3 µM of 75%. For the same compound, the IC50 in assay [2] came to 0.021 µM; in assay [3] it was 0.852 µM; in assay [4], 0.092 µM.

In turn, `CC#CCOc1ccc(S(=O)(=O)N2Cc3ccc(CN(C)C)cc3N(C(C)=O)CC2C(=O)NO)cc1` (configuration not stated) gave an inhibition at 3 µM in assay [1] of 70%. In addition, the IC50 in assay [2] amounted to 0.067 µM; in assay [3], 0.904 µM; in assay [4], 0.018 µM.

Compound `CC#CCOc1ccc(S(=O)(=O)N2Cc3cc(N(C)C)ccc3N(C(C)=O)CC2C(=O)NO)cc1` (configuration not stated) yielded an inhibition at 3 µM in assay [1] of 33%. Also, the IC50 in assay [2] was 0.017 µM; in assay [3], 0.682 µM; in assay [4], 0.197 µM.

`CC#CCOc1ccc(S(=O)(=O)N2Cc3ccc(C(=O)NC)cc3N(C(C)=O)CC2C(=O)NO)cc1` (configuration not stated) had an inhibition at 3 µM in assay [1] of 64%. In addition, the half-inhibitory concentration (IC50) is 0.042 µM in assay [2], 0.813 µM in assay [3] and 0.041 µM in assay [4].

With `CC#CCOc1ccc(S(=O)(=O)N2Cc3ccccc3N(C(=O)c3cnccn3)CC2C(=O)NO)cc1` (configuration not stated), at 3 µM the inhibition in assay [1] was 41%. The IC50 in assay [2] was found to be 0.02 µM; in assay [3] it was 0.356 µM; in assay [4], 0.069 µM.

`CC#CCOc1ccc(S(=O)(=O)N2Cc3cc(N(C)CCc4ccccn4)ccc3N(C(C)=O)CC2C(=O)NO)cc1` (configuration not stated) gave an inhibition at 3 µM in assay [1] of 82%. Besides, the results for the IC50 in assay [2] and in assay [4] were 0.053 µM and 0.121 µM, respectively. Moreover, in assay [5], the inhibition is 19%.

Regarding `CC#CCOc1ccc(S(=O)(=O)N2Cc3cc(NCCc4ccccn4)ccc3N(C(C)=O)CC2C(=O)NO)cc1` (configuration not stated), testing at 3 µM in assay [1] gave an inhibition of 44%. The half-maximal inhibitory concentration (IC50) in assay [2] is 0.047 µM; in assay [4] it was 0.049 µM. In assay [5], this compound gave an inhibition of 30%.

`CC#CCOc1ccc(S(=O)(=O)N2Cc3ccc(CN4CCNCC4)cc3N(C(C)=O)CC2C(=O)NO)cc1` (configuration not stated) had an inhibition at 3 µM in assay [1] of 72%. Further, the IC50 in assay [2] came out at 0.017 µM; in assay [3] it was 0.483 µM; in assay [4] it was 0.014 µM.

With `CC#CCOc1ccc(S(=O)(=O)N2Cc3cc(OCCc4ccccc4)ccc3N(C(C)=O)CC2C(=O)NO)cc1` (configuration not stated), in assay [1], the inhibition at 3 µM was determined as 83%. Further, the results for the half-inhibitory concentration (IC50) in assay [2] and in assay [4] were 0.028 µM and 0.036 µM, respectively. Moreover, the inhibition in assay [5] is 45%.

Take `CC#CCOc1ccc(S(=O)(=O)N2Cc3cc(N4CCOCC4)ccc3N(C(C)=O)CC2C(=O)NO)cc1` (configuration not stated): the inhibition at 3 µM in assay [1] came out at 73%. Besides, the IC50 in assay [2] was determined as 0.033 µM; in assay [3] it was 1.26 µM; in assay [4] it was 0.13 µM.

Regarding `CC#CCOc1ccc(S(=O)(=O)N2Cc3ccc(CNC)cc3N(C(C)=O)CC2C(=O)NO)cc1` (configuration not stated), testing at 3 µM in assay [1] gave an inhibition of 81%. Also, the IC50 in assay [2] is 0.032 µM; in assay [3], 0.456 µM; in assay [4], 0.014 µM.

For the compound `CC#CCOc1ccc(S(=O)(=O)N2Cc3ccccc3N(C(=O)COC)CC2C(=O)NO)cc1` (configuration not stated), the inhibition at 3 µM in assay [1] was 73%. Moreover, the half-inhibitory concentration (IC50) in assay [2] is 0.097 µM; in assay [3], 0.853 µM; in assay [4], 0.081 µM.

As to `CC#CCOc1ccc(S(=O)(=O)N2Cc3ccccc3N(C(C)=O)CC2C(=O)NO)cc1` (configuration not stated), 3 µM produced 60% inhibition in assay [1].

`CC#CCOc1ccc(S(=O)(=O)N2Cc3ccc(CO)cc3N(C(C)=O)CC2C(=O)NO)cc1` (configuration not stated) gave an inhibition at 3 µM in assay [1] of 63%. Further, the IC50 in assay [2] came to 0.02 µM; in assay [3], 0.5 µM; in assay [4], 0.012 µM.

In the case of `CC#CCOc1ccc(S(=O)(=O)N2Cc3ccccc3N(C(=O)c3cccnc3)CC2C(=O)NO)cc1` (configuration not stated), testing at 3 µM in assay [1] gave an inhibition of 33%. Moreover, the concentration for half-maximal inhibition (IC50) is 0.019 µM in assay [2], 0.238 µM in assay [3] and 0.089 µM in assay [4].

As to `CC#CCOc1ccc(S(=O)(=O)N2Cc3ccccc3N(C(=O)c3ccco3)CC2C(=O)NO)cc1` (configuration not stated), in assay [1], 3 µM produced 74% inhibition.

For the compound `CC#CCOc1ccc(S(=O)(=O)N2Cc3ccc(CNC(C)=O)cc3N(C(C)=O)CC2C(=O)NO)cc1` (configuration not stated), in assay [1], testing at 3 µM gave an inhibition of 46%. The IC50 in assay [2] came out at 0.012 µM; in assay [3] it was 0.578 µM; in assay [4], 0.031 µM.

As a reminder, the inhibition is the percentage by which the read-out fell short of the control. One may read the IC50 as the concentration needed to halve the response being measured. Low readings indicate greater potency, high ones weaker potency.
